Experimental data published in patent publication US11993574B2, “Pyrazole and imidazole compounds for inhibition of IL-17 and RORgamma” (REATA PHARMACEUTICALS, INC., priority 2018, dated 2024).

Key:
Assay type in all cases: cell-based
[1] = system: Nrf2 transcription factor; test: AREc32 luciferase reporter assay; settings: Homo sapiens; AREc32 cells, 19 hours; concentration required to increase GST ARE luciferase reporter activity by 2-fold; read-out: NRF2 ARE 2-Fold (EC2×)
Outline: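 AREc32 cells (MCF-7 with firefly luciferase under eight rat GSTA2 ARE copies) treated 19 h with compound (0.4-200 nM or 3.9-2000 nM) in triplicate. Luminescence normalized to DMSO as fold-induction, capped at 50-fold. EC2× = concentration giving 2-fold reporter increase, interpolated from variable-slope fit.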

[2] = biological target: T1, Human RAR-related Orphan Receptor Gamma (RORγ) (Homo sapiens, UniProt P51449); test: RORγ assay (GAL4-RORγ hybrid luciferase reporter, Indigo Biosciences); settings: inverse-agonist activity, GAL4-RORγ reporter cells, 23 hours
T1 sequence (P51449 269-508 limits assumed): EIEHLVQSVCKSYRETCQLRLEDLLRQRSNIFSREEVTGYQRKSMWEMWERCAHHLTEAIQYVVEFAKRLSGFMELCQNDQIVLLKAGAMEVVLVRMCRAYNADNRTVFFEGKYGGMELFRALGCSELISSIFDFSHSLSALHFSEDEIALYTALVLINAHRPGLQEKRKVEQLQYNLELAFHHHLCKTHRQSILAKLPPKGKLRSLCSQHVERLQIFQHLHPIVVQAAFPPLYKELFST
Outline: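 […]engineered human reporter cell line expressing GAL4-DBD/RORγ-LBD hybrid with GAL4-UAS luciferase; constitutive activity measured as inverse agonism. Cells treated with compound (7.8-2000 nM) for 23 h at 37 °C; luminescence normalized to DMSO, IC50 by variable-slope fit, with parallel viability readout to flag non-specific inhibition.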

[3] = system: IL-17A; test: IL-17 release from differentiated primary human T-cells (IL-17A HTRF assay); settings: primary human CD4+ T cells differentiated into Th17 cells, 45-hour incubation, IL-17A in supernatant; read-out: hIL17 IC50
Outline: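 Primary human CD4+ T cells (~2×10^5/well) given compound (2–500 or 4–1000 nM, 0.1% DMSO), CD3/CD28-activated and Th17-differentiated (TGF-β, IL-6, IL-23, IL-1β) for 45 h at 37° C. Supernatant IL-17A by HTRF against standard curve, normalized to vehicle; IC50 by variable-slope regression, with parallel CyQuant viability.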

SMILES	IC50 [2] [nM]	IC50 [3] [nM]	EC (2-fold) [1] [µM]
Cc1noc(-c2ccc(-n3nc(-c4cccnc4)c4c3[C@]3(C)C=C(C#N)C(=O)[C@H](C)[C@H]3CC4)cc2)n1 [T107]	112	87	0.505
Cc1cc(-c2ccc(-n3nc(-c4nc(C)no4)c4c3[C@]3(C)C=C(C#N)C(=O)[C@H](C)[C@H]3CC4)cc2)cnn1 [T108]	154	223	1.25
Cc1noc(-c2nn(-c3ccc(-c4cccnc4)cc3)c3c2CC[C@@H]2[C@@H](C)C(=O)C(C#N)=C[C@@]32C)n1 [T109]	89	163	0.543
Cc1cc(-c2ccc(-n3nc(-c4noc(C)n4)c4c3[C@]3(C)C=C(C#N)C(=O)[C@H](C)[C@H]3CC4)cc2)cnn1 [T110]	193	126	1.31
C[C@H]1C(=O)C(C#N)=C[C@@]2(C)c3nc(C4CCCCC4)n(-c4ccccc4)c3CC[C@H]12 [T113]	172	181	> 1
C[C@H]1C(=O)C(C#N)=C[C@@]2(C)c3nn(-c4ccc(Cl)cc4)c(-c4ccccc4)c3CC[C@H]12 [T114]	106	507	0.894
C[C@H]1C(=O)C(C#N)=C[C@@]2(C)c3nn(-c4ccccc4)c(-c4ccccc4)c3CC[C@H]12 [T115]	77	287	0.466
COc1ccc(-n2nc3c(c2-c2ccccc2)CC[C@@H]2[C@@H](C)C(=O)C(C#N)=C[C@@]32C)cc1 [T116]	80	191	0.483
C[C@H]1C(=O)C(C#N)=C[C@@]2(C)c3nn(-c4ccc(Cl)c(Cl)c4)c(-c4ccccc4)c3CC[C@H]12 [T117]	114	107	0.834
Cc1ccc(-n2nc3c(c2-c2ccccc2)CC[C@@H]2[C@@H](C)C(=O)C(C#N)=C[C@@]32C)cc1 [T118]	122	158	0.635
C[C@H]1C(=O)C(C#N)=C[C@@]2(C)c3nn(-c4ccc(-c5ccccc5)cc4)c(CC4CCC4)c3CC[C@H]12 [T119]	158	43	1.16
C[C@H]1C(=O)C(C#N)=C[C@@]2(C)c3nn(-c4ccc(-c5ccccc5)cc4)c(-c4ccncn4)c3CC[C@H]12 [T120]	92	54	0.908
C[C@H]1C(=O)C(C#N)=C[C@@]2(C)c3nn(-c4cccc(-c5ccccc5)c4)c(-c4ccncn4)c3CC[C@H]12 [T121]	242	85	1.07
C[C@H]1C(=O)C(C#N)=C[C@@]2(C)c3nn(-c4ccncc4)c(-c4ccc(F)cc4)c3CC[C@H]12 [T122]	97	246	0.441
C[C@H]1C(=O)C(C#N)=C[C@@]2(C)c3nn(-c4ccc(-c5ccccc5)cc4)c(-c4ccccc4F)c3CC[C@H]12 [T123]	139	50	1.18
C[C@H]1C(=O)C(C#N)=C[C@@]2(C)c3nn(-c4ccc(-c5ccccc5)cc4)c(-c4ccncc4)c3CC[C@H]12 [T124]	123	77	0.651
C[C@H]1C(=O)C(C#N)=C[C@@]2(C)c3nn(-c4ccc(-c5ccccc5)cc4)c(-c4cccnc4)c3CC[C@H]12 [T125]	137	86	0.877
C[C@H]1C(=O)C(C#N)=C[C@@]2(C)c3nn(-c4cccc(-c5ccccc5)c4)c(-c4cccc(F)c4)c3CC[C@H]12 [T126]	253	21	1.12

Second part, led by results:

IC50 [2] [nM]	IC50 [3] [nM]	SMILES	EC (2-fold) [1] [µM]
267	62	C[C@H]1C(=O)C(C#N)=C[C@@]2(C)c3nc(-c4ccc(-c5ccccc5)cc4)n(-c4cccc(F)c4)c3CC[C@H]12 [T127]	1.12
158	117	C[C@H]1C(=O)C(C#N)=C[C@@]2(C)c3nc(-c4cccc(-c5ccccc5)c4)n(-c4cccc(F)c4)c3CC[C@H]12 [T128]	0.818
214	73	CC(C)c1ccc(-c2nc3c(n2-c2cccc(F)c2)CC[C@@H]2[C@@H](C)C(=O)C(C#N)=C[C@@]32C)cc1 [T129]	1.29
345	273	C[C@H]1C(=O)C(C#N)=C[C@@]2(C)c3nc(C4CCOCC4)n(-c4cccc(F)c4)c3CC[C@H]12 [T130]	1.78
170	138	CC(C)c1ncc(-c2nc3c(n2-c2cccc(F)c2)CC[C@@H]2[C@@H](C)C(=O)C(C#N)=C[C@@]32C)cn1 [T131]	0.767
110	114	C[C@H]1C(=O)C(C#N)=C[C@@]2(C)c3nc(-c4ccc(N(C)C)cc4)n(-c4cccc(F)c4)c3CC[C@H]12 [T132]	1.02
225	247	Cc1nc2c(n1-c1cccc(F)c1)CC[C@@H]1[C@@H](C)C(=O)C(C#N)=C[C@@]21C [T133]	0.767
143	183	C[C@H]1C(=O)C(C#N)=C[C@@]2(C)c3nc(-c4ccccc4)n(-c4cccc(F)c4)c3CC[C@H]12 [T134]	0.832
141	160	C[C@H]1C(=O)C(C#N)=C[C@@]2(C)c3nc(-c4ccnc5ccccc45)n(-c4cccc(F)c4)c3CC[C@H]12 [T135]	0.896
189	144	C[C@H]1C(=O)C(C#N)=C[C@@]2(C)c3nc(-c4cccc5ncccc45)n(-c4cccc(F)c4)c3CC[C@H]12 [T136]	0.753
93	240	C[C@H]1C(=O)C(C#N)=C[C@@]2(C)c3nc(-c4cnc5ccccc5c4)n(-c4cccc(F)c4)c3CC[C@H]12 [T137]	0.618
284	201	CC(C)c1cccc(-c2nc3c(n2-c2cccc(F)c2)CC[C@@H]2[C@@H](C)C(=O)C(C#N)=C[C@@]32C)c1 [T138]	0.941
112	128	C[C@H]1C(=O)C(C#N)=C[C@@]2(C)c3nc(-c4ccnc(N5CCOCC5)c4)n(-c4cccc(F)c4)c3CC[C@H]12 [T139]	0.66
113	288	C[C@H]1C(=O)C(C#N)=C[C@@]2(C)c3nc(Cc4ccccc4)n(-c4cccc(F)c4)c3CC[C@H]12 [T140]	1.27
146	194	C[C@H]1C(=O)C(C#N)=C[C@@]2(C)c3nc(-c4ccnc(C(F)(F)F)c4)n(-c4cccc(F)c4)c3CC[C@H]12 [T141]	0.892
76	156	C[C@H]1C(=O)C(C#N)=C[C@@]2(C)c3nc(-c4ccc(C5CC5)nc4)n(-c4cccc(F)c4)c3CC[C@H]12 [T142]	0.861
95	132	C[C@H]1C(=O)C(C#N)=C[C@@]2(C)c3nc(-c4cccc(N5CCOCC5)c4)n(-c4cccc(F)c4)c3CC[C@H]12 [T143]	0.643
173	207	C[C@H]1C(=O)C(C#N)=C[C@@]2(C)c3nc(-c4ccnc(C5CC5)c4)n(-c4cccc(F)c4)c3CC[C@H]12 [T144]	1.12
